In assay [1] the target is soluble T cell receptor P14. Nature of the assay: SPR. A general note: In SPR one partner is held on a chip, and binding of the other changes the refractive index at the surface.
In assay [2] the test system is endogenous CD8^+ T cells. Particulars: mouse, in vivo; cited from earlier work.
The subject of assay [3] is H-2D^b/peptide complexes (pMHC). Set-up: species or system murine. The conditions noted are these: for melting temperature (Tm): pH 7.4.
Assay [4] has as its target H-2D^b (Mus musculus, UniProt P01899). Details: species or system murine.
Assay [5] concerns TCR P14. In kind it is binding.

“Also recorded” adds a separate entry of the source.

Chain of H-2D^b (P01899 whole entry, looked up): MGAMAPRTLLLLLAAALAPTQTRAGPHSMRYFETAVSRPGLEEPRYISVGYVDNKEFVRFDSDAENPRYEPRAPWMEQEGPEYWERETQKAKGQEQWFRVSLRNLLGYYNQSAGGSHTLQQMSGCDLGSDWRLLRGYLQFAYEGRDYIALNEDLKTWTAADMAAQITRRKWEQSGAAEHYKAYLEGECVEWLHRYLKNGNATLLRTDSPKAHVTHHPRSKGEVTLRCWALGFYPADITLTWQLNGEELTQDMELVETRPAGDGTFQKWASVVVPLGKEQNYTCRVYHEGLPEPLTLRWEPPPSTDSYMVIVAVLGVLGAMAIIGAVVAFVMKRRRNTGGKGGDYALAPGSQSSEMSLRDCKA

For orientation: Kd means the constant that tells how readily two partners part at equilibrium. Low readings indicate a tighter complex, high ones a looser complex. “H-2D^b/gp33 (from UniProt P01887) (peptide-MHC)”: the Kd in assay [1] was determined as 6.3 µM.
For the substance KAPFNFATM [V3P_Y4F], the “recognition of Y4F-presenting infected cells by endogenous CD8^+ T cells” value in assay [2] is given as “efficiently restores recognition of infected cells presenting Y4F by endogenous CD8^+ T cells”.
For the substance KAPYNFATM [V3P], the “melting temperature (Tm)” value in assay [3] was determined as 66.0 °C.
With KAPYNfATM [V3P_F6f], in assay [4], the “conformation of p6f / p4Y side chains and H155” value is “prevents the H-2D^b residue H155 to rotate counter clock wise and to assume a TCR-bound-like conformation”; the “distances H-2D^b W73:NH–p6:CO and H-2D^b Y156:OH–p6:NH” value is recorded as “both distances increase in comparison to the corresponding structures with the L-amino acid”; the pMHC complex formation result is given as “does not compromise complex formation”. Besides, in assay [3], the “thermal stability of pMHC (in words)” value is on record as “slight decrease in stability” and the “melting temperature (Tm)” value came to 64.0 °C. Besides, in assay [5], the “binding by TCR P14 (in words)” value was “reduced P14 affinity; also recorded: significantly reduced binding by the H-2D^b/gp33-specific TCR P14”.
In the case of KAVYNFATM [gp33, reference compound], in assay [3], the “melting temperature (Tm)” value worked out at 63.5 °C.
Turning to KAVYNfATM [F6f], in assay [4], the “conformation of p6f / p4Y side chains and H155” value was “the side chain of p6f takes a different conformation in H-2D^b/F6f compared to H-2D^b/gp33”; the “distances H-2D^b W73:NH–p6:CO and H-2D^b Y156:OH–p6:NH” value is listed as “both distances increase in comparison to the corresponding structures with the L-amino acid”; the pMHC complex formation result was “does not compromise complex formation”. Also, in assay [3], the “thermal stability of pMHC (in words)” value is listed as “slight decrease in stability” and the “melting temperature (Tm)” value is 61.5 °C. Moreover, the “binding by TCR P14 (in words)” value in assay [5] is given as “reduced P14 affinity; also recorded: significantly reduced binding by the H-2D^b/gp33-specific TCR P14”.

The values are drawn from publication PMC8945122 (ACS Omega, 2022).
